Measurements from patent US5691373A, “Nonpeptide endothelin antagonists I” (Warner-Lambert Company, priority 1995, dated 1997).

What was measured:
[1] = molecular target: T1, ETA (Oryctolagus cuniculus, UniProt A5A8K3); settings: ERBA-A IC50, [125I]-ET-1, rabbit renal artery vascular smooth muscle cells
T1 sequence (A5A8K3 21-427): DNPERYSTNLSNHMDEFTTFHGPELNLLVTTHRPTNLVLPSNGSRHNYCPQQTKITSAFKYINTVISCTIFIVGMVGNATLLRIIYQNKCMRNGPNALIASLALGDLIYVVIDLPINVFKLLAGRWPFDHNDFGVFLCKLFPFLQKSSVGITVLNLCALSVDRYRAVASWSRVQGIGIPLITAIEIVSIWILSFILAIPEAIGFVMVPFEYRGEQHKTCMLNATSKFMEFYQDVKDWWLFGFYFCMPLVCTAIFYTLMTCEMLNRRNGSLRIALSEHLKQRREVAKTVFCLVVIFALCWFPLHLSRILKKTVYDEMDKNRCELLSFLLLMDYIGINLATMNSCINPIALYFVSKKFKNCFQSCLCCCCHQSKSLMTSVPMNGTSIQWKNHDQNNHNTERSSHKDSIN
Method: The cells used were rabbit renal artery vascular smooth muscle cells grown in a 48-well dish (1 cm^2) (confluent cells).
The growth media was Dulbecco's Modified Eagles/Ham's F12 which contained 10% fetal bovine serum and antibiotics (penicillin/streptomycin/fungizone).
Second, remove the assay buffers, place the dish on ice, and add 150 μL of cold assay buffer described above to each well. […] Next, place dish in a 37° C., water bath for about 2 hours and gently agitate the dish every 15 minutes. Discard the radioactive incubation mixture in the sink and wash wells 3 times with 1 mL of cold phosphate buffered saline.

[2] = molecular target: T2, human ETB receptor (Homo sapiens, UniProt P24530); test: ERBA-B: [125I]-ET-1 binding, recombinant human ETB receptor expressed in CHO-K1 cells; settings: human cloned ETB receptor, read-out: ERBA-B IC50, human cloned receptor data
T2 construct: expressed in transfected cells; host or cells: CHO-K1 cells, pRc-CMW (so in the source) expression vector, electroporation; membranes used
T2 sequence (P24530 27-442): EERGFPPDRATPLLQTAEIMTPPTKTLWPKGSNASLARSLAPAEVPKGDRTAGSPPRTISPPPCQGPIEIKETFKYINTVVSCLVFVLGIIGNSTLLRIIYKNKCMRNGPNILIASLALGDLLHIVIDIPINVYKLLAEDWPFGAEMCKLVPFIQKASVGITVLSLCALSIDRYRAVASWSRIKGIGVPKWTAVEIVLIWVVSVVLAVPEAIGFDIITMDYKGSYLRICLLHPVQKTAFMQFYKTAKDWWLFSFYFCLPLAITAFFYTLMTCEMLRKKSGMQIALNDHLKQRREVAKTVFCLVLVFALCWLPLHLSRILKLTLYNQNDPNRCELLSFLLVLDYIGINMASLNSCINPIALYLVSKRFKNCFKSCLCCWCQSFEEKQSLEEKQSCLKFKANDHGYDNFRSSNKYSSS

IC50 [1]	IC50 [2]	Compound
80 nM	> 2500 nM	COc1ccc(C2(O)OC(=O)C(c3ccc4c(c3)OCO4)=C2Cc2ccccc2)c(OCC(=O)O)c1 (stereo not drawn) [Example 341, [2(4-Benzo[1,3]dioxol-5-yl-3-benzyl-2-hydroxy-5-oxo-2,5-dihydro-furan-2-yl) -5-methoxy-phenoxy]-acetic acid]
380 nM	> 25000 nM	COc1ccc(C2(O)OC(=O)C(c3ccc4c(c3)OCO4)=C2Cc2ccc(OC)cc2OCC(=O)O)cc1 (stereo not drawn) [Example 344, {2-[4-Benzo[1,3]dioxol-5-yl-2-hydroxy-2-(4-methoxy-phenyl)-5-oxo-2,5-dihydro-furan-3-ylmethyl]-5-methoxy-phenoxy}-acetic acid]
7100 nM	> 25000 nM	O=C(O)/C(=C(/Cc1ccccc1)C(=O)c1ccc(-n2ccnc2)cc1)c1ccc2c(c1)OCO2 [Example 348, 2-Butenoic acid, 2-(1,3-benzodioxol-5-yl)-4-[4-(1H-imidazol-1-yl)phenyl]4-oxo-3-(phenylmethyl)-]
42 nM	1600 nM	COc1ccc(C(=O)/C(Cc2ccccc2)=C(\C(=O)O)c2ccc3c(c2)OCO3)cc1C [Example 355, Sodium 2-Benzo[1,3]dioxol-5-yl-3-benzyl-4-(4-methoxy-3-methyl-phenyl)-4-oxo-but-2-enoate]
< 2.5 nM	1100 nM	CCOC(=O)COc1cc(CC2=C(c3ccc4c(c3)OCO4)C(=O)OC2(O)c2ccc(OC)cc2)cc(OC)c1OC (stereo not drawn) [Example 363, {5-[4-Benzo[1,3]dioxol-5-yl-2-hydroxy-2-(4-methoxyphenyl)-5-oxo-2,5-dihydro-furan-3-ylmethyl]-2,3-dimethoxy-phenoxy}-acetic acid ethyl ester]
< 25 nM	960 nM	COc1ccc(C(=O)/C(Cc2ccccc2)=C(\C(=O)O)c2cc(OC)c3c(c2)OCO3)cc1 [Example 368, Sodium 3-Benzyl-2-(7-methoxy-benzo[1,3]dioxol-5-yl)-4-(4-methoxy-phenyl)-4-oxo-but-2-enoate]
10 nM	1530 nM	COc1ccc(C(=O)/C(Cc2ccccc2)=C(\C(=O)O)c2cc(OC)c3c(c2)OCO3)cc1C [Example 370, Sodium 3-Benzyl-2-(7-methoxy-benzo[1,3]dioxol-5-yl)-4-(4-methoxy-3-methyl-phenyl)-4-oxo-but-2-enoate]
0.39 nM	328 nM	COc1ccc(C(=O)/C(Cc2cc(OC)c(OC)c(OC)c2)=C(\C(=O)O)c2cc(OC)c3c(c2)OCO3)cc1 [Example 371]
1.8 nM	> 250 nM	COc1ccc(C2(O)OC(=O)C(c3ccc4c(c3)OCO4)=C2Cc2ccc(OC(C)C)c(OC)c2)cc1C (stereo not drawn) [Example 391, 3-Benzo[1,3]dioxol-5-yl-5-hydroxy-4-(4-isopropoxy-3-methoxy-benzyl)-5-(4-methoxy-3-methyl-phenyl)-5H-furan-2-one]
3800 nM	14000 nM	COc1cc(OC)cc(/C(C(=O)O)=C(\Cc2c(OC)cc(OC)cc2OC)C(=O)c2ccc(OC)c(C)c2)c1 [Example 392]
68 nM	420 nM	CCCCCCCCOc1ccc(CC2=C(c3ccc4c(c3)OCO4)C(=O)OC2(O)c2ccc(OC)c(C)c2)cc1OC (stereo not drawn) [Example 394, 3-Benzo[1,3]dioxol-5-yl-5-hydroxy-5-(4-methoxy-3-methyl-phenyl)-4-(3-methoxy-4-octyloxy-benzyl)-5H-furan-2-one]
610 nM	2600 nM	COc1ccc(C2(O)OC(=O)C(c3ccc4c(c3)OCO4)=C2Cc2ccc(OC3CCCCC3)c(C)c2)cc1 (stereo not drawn) [Example 397, 3-Benzo[1,3]dioxol-5-yl-4-(4-cyclohexyloxy-3-methylbenzyl)-5-hydroxy-5-(4-methoxy-phenyl)-5H-furan-2-one]
830 nM	> 2500 nM	COc1ccc(C2(O)OC(=O)C(c3ccc4c(c3)OCO4)=C2CC2CCCc3ccccc32)cc1 (stereo not drawn) [Example 398, 3-Benzo[1,3]dioxol-5-yl-5-hydroxy-5-(4-methoxy-phenyl)-4-(1,2,3,4-tetrahydro-naphthalen-1-ylmethyl)-5H-furan-2-one]
39 nM	> 2500 nM	COc1ccc(C2(O)OC(=O)C(c3ccc4c(c3)OCO4)=C2CC2CC2)cc1 (stereo not drawn) [Example 400, 3-Benzo[1,3]dioxol-5-yl-4-cyclopropylmethyl-5-hydroxy-5-(4-methoxy-phenyl)-5H-furan-2-one]

The remaining lines, values behind:

Compound	IC50 [1]	IC50 [2]
C=CCOc1cc(OC)ccc1CC1=C(c2ccc3c(c2)OCO3)C(=O)OC1(O)c1ccc(OC)cc1 (stereo not drawn) [Example 343, 4(2-Allyloxy-4-methoxy-benzyl)-3-benzo[1,3]dioxol-5-yl-5-hydroxy-5-(4-methoxy-phenyl)-5H-furan-2-one]	10 nM	2200 nM
COc1ccc(C(=O)/C(Cc2ccc(C(=O)NCCN3CCOCC3)cc2)=C(\C(=O)O)c2ccc3c(c2)OCO3)cc1 [Example 349, 2-benzo[1,3]dioxol-5-yl-4-(4-methoxy-phenyl)-3-[4-(2-morpholin-4-yl-ethylcarbamoyl)-benzyl]-4-oxo-but-2-enoic acid]	510 nM	25000 nM
COc1ccc(C(=O)/C(Cc2ccc(OC(C)C)cc2)=C(\C(=O)O)c2ccc3c(c2)OCO3)cc1 [Example 353, Sodium 2-Benzo[1,3]dioxol-5-yl-3-(4-isopropoxy-benzyl)-4-(4-methoxy-phenyl)-4-oxo-but-2-enoate]	4.4 nM	> 250 nM
CCOC(=O)COc1c(OC)cc(CC2=C(c3ccc4c(c3)OCO4)C(=O)OC2(O)c2ccc(OC)cc2)cc1OC (stereo not drawn) [Example 362, {4-[4-Benzo[1,3]dioxol-5-yl-2-hydroxy-2-(4-methoxyphenyl)-5-oxo-2,5-dihydro-furan-3-ylmethyl]-2,6-dimethoxy-phenoxy}-acetic acid ethyl ester]	26 nM	1200 nM
COc1ccc(C(=O)/C(Cc2ccc(NC(C)=O)cc2)=C(\C(=O)O)c2ccc3c(c2)OCO3)cc1 [Example 366, Potassium 3-(4-Acetylamino-benzyl)-2-benzo[1,3]dioxol-5-yl-4-(4-methoxy-phenyl)-4-oxo-but-2-enoate]	7.3 nM	4900 nM
COc1ccc(C/C(C(=O)c2ccc(OC)cc2)=C(/C(=O)O)c2ccc3c(c2)OCO3)cc1 [Example 380, Sodium2-Benzo[1,3]dioxol-5-yl-3-(4-methoxy-benzyl)-4-(4-methoxy-phenyl)-4-o xo-but-2-enoate]	24 nM	2000 nM
CCCCCCCCOc1ccc(CC2=C(c3cc(OC)cc(OC)c3)C(=O)OC2(O)c2ccc(OC)cc2)cc1OC (stereo not drawn) [Example 381, 3-(3,5-Dimethoxy-phenyl)-5-hydroxy-4-(3-methoxy-4-octyloxy-benzyl)-5-(4-methoxy-phenyl)-5H-furan-2-one]	68 nM	570 nM
COc1cc(OC)cc(C2=C(Cc3ccc(NC(C)=O)cc3)C(O)(c3ccc(OC)c(C)c3)OC2=O)c1 (stereo not drawn) [Example 385, N-{4-[4-(3,5-Dimethoxy-phenyl)-2-hydroxy-2-(4-methoxy-3-methyl-phenyl)-5-oxo-2,5-dihydro-furan-3-ylmethyl]-phenyl}-acetamide]	0.8 nM	690 nM
COc1cc(OC)cc(C2=C(Cc3ccc(OC(C)C)c(OC)c3)C(O)(c3ccc(OC)c(C)c3)OC2=O)c1 (stereo not drawn) [Example 390, 3-(3,5-Dimethoxy-phenyl)-5-hydroxy-4-(4-isopropoxy-3-methoxy-benzyl)-5-(4-methoxy-3-methyl-phenyl)-5H-furan-2-one]	7 nM	820 nM
CCCCCCCCOc1ccc(CC2=C(c3cc(OC)cc(OC)c3)C(=O)OC2(O)c2ccc(OC)c(C)c2)cc1OC (stereo not drawn) [Example 393, 3-(3,5-Dimethoxy-phenyl)-5-hydroxy-5-(4-methoxy-3-methyl-phenyl)-4-(3-methoxy-4-octyloxy-benzyl)-5H-furan-2-one]	240 nM	830 nM
COc1ccc(C2(O)OC(=O)C(c3ccc4c(c3)OCO4)=C2Cc2ccc(OC(C)C)c(C)c2)cc1C (stereo not drawn) [Example 395, 3-Benzo[1,3]dioxol-5-yl-5-hydroxy-4-(4-isopropoxy-3-methyl-benzyl)-5-(4-methoxy-3-methyl-phenyl)-5H-furan-2-one]	13 nM	840 nM
COc1cc(OC)cc(C2=C(Cc3ccc(OC(C)C)c(C)c3)C(O)(c3ccc(OC)c(C)c3)OC2=O)c1 (stereo not drawn) [Example 396, 3-(3,5-Dimethoxy-phenyl)-5-hydroxy-4-(4-isopropoxy-3-methyl-benzyl)-5-(4-methoxy-3-methyl-phenyl)-5H-furan-2-one]	47 nM	1200 nM
COC(=O)C1CCCC(CC2=C(c3ccc4c(c3)OCO4)C(=O)OC2(O)c2ccc(OC)cc2)C1 (stereo not drawn) [Example 399, 3-[4-Benzo[1,3]dioxol-5-yl-2-hydroxy-2-(4-methoxyphenyl)-5-oxo-2,5-dihydro-furan-3-ylmethyl]-cyclohexanecarboxylic acid methyl ester]	20 nM	1100 nM
